This note sets out measurements from US20250325467A1, “COMPOSITIONS FOR PREVENTING OR TREATING SKIN AGING” (ESTETRA SRL, priority 2021, published 2025).

“Also recorded” adds a separate entry of the source.

The subject of assay [1] is mouse fibroblasts. The assay can be described thus: Fibroblast monolayer scratch assay, mouse fibroblasts. The class given is cell-based. The conditions noted are these: mouse fibroblasts (female C57Bl/6); 10^−7M; pilot experiments. As to the method: (§1) Confluent wells of both primary keratinocytes and fibroblasts were subjected to a highly validated scratch wounding procedure (using a 1 mL sterile filter tip). Post-scratching, cells were rinsed with DPBS and cell-specific media containing treatments added to each well. Cells were imaged on a ptychographic live cell imaging platform (Livecyte 2™, Phasefocus) for 24-48 hours. Automated tracking of individual unlabeled cells will be combined with 3D cell measurements to quantify a range of wound-relevant cell parameters including scratch closure rate.
(§2) Dose range finding experiments were conducted with E4 (10^−10M to 10^−6M) and E2 with and without Mitomycin C (MMC, to inhibit proliferation) using vehicle as negative controls.

Assay [2] concerns primary human dermal fibroblasts. The assay can be described thus: Fibroblast monolayer scratch assay, human fibroblasts. The class given is cell-based. The conditions noted are these: human fibroblasts from three female donors; 10^−10M to 10^−6 M; pilot experiments. As to the method:
(§3) Human skin was transferred to the laboratory in holding media (DMEM containing 4% penicillin-streptomycin and Amphotericin B solution) within 30 minutes of collection. Once defatted, the skin was rinsed in HBSS with 4% PSA followed by DPBS without antibiotics, then cut into thin strips and floated on 0.2% Dispase II in DPBS overnight at 4° C., followed by manual separation of the epidermis from the dermis. Primary human epidermal keratinocytes and primary human dermal fibroblasts were then isolated.
as §1, §2

Assay [3] has as its system primary human epidermal keratinocytes. Nature of the assay: Keratinocyte migration scratch assay. In kind it is cell-based. As to conditions: 15% HKGS; E4 10^−10M and 10^−7M; compared with E2. As to the method:
as §3, §1, §2

Assay [4] deals with IL-6 release from NHEKs. Nature of the assay: PMA/A23187-induced IL-6 release from NHEKs (ELISA, normalized to viability). The class given is cell-based, human. The conditions noted are these: 24 h, vs stimulated EtOH 0.1% condition. As to the method:
The Normal Human foreskin-derived Epidermal Keratinocytes (NHEKs, Lonza, 00192906), isolated from foreskin of 3 Caucasian donors, were grown in Epilife medium (Fisher Scientific, M-EPI-500-A) supplemented with Human Keratinocyte Growth Supplement (HKGS, Fisher Scientific, S-001-5) and antibiotics (Gentamycin, Fisher Scientific, 15710-049). The cells were maintained in a humidified incubator at 37° C. with a 5% CO2 atmosphere.
E4 and E2, provided as powder, were dissolved in 100% ethanol at 0.1M. They were then further diluted in ethanol and in culture medium to reach the appropriate concentrations. […] Practically, stock solutions 1000-fold concentrated were prepared in 100% ethanol, aliquoted and stored at −20° C. until cell application.
In order to induce the release of IL-6, NHEKs were exposed for 24 h with phorbol myristate acetate (PMA) at 10 ng/mL, in combination with calcium ionophore A23187 (Sigma Aldrich, C5722) at 2 μM. The treatments with the test or reference items were performed simultaneously with the inflammatory challenge. […] E4 was applied at 10^−4, 10^−5, 10^−6, 10^−7 and 10^−8 M and E2 at 10^−5, 10^−6, 10^−7, 10^−8 and 10^−9 M EtOH at 0.1% was tested as solvent control. Dexamethasone at 10 μM was used as anti-inflammatory reference. At the end of 24 h treatment, supernatants were harvested and stored at −20° C., and cell viability assay was assessed by MTS (see section 5). The kinetics of the treatments is outlined in FIG. 12. All the treatments were performed in triplicates (n=3).
The quantification of the release of inflammatory markers was performed using specific ELISA kits, based on standard curves, according to supplier's specifications. The results were then normalized to the corresponding cell viability (obtained by MTS assay).
The supplier's reference of the kits used for IL-6 quantification is as follows: IL-6, BioTechne, D6050.
At the end of the treatments and culture media collection, the viability of the cells was evaluated using the MTS (3-(4,5-dimethythiazol-2-yl)-5-(3-carboxy-methoxyphenyl)-2-(4-sulfophenyl)-2H-tetrazolium) assay. The effects of the treatments were compared to the untreated control condition and to the solvent control (EtOH 0.1%). The viability data were used in order to normalize the quantities of released inflammatory mediators.
NHEKs were treated as described in the methodology section. The quantification of IL-6 by ELISA was performed from the collected supernatants, following the instructions of the kit provider. Only 3 concentrations of the test items (chosen in accordance with the Sponsor following the results of the viability assay) were assessed in the ELISA.
Background: ELISA stands for enzyme-linked immunosorbent assay.

Consider `C[C@]12CC[C@@H]3c4ccc(O)cc4CC[C@H]3[C@@H]1[C@@H](O)[C@@H](O)[C@@H]2O` [E4, 1,3,5 (10)-estratrien-3,15alpha,16alpha,17beta-tetrol], for which the “fibroblast migration / in vitro wound closure” value in assay [1] and in assay [2] was “promotes in vitro wound closure to a similar extent as E2; also recorded: as effective as E2 in promoting fibroblast migration” each time. In assay [3], the “impact on keratinocyte migration (wound closure)” value is listed as “higher than the impact of E2”. The “PMA/A23187-induced IL-6 release” value is “significantly and strongly decreased the release of IL-6; also recorded: strongly and significantly diminished” in assay [4] (10^−5 M); “significantly and strongly decreased the release of IL-6; also recorded: strongly and significantly diminished” in assay [4] (10^−6 M); “significantly and strongly decreased the release of IL-6; also recorded: strongly and significantly diminished” in assay [4] (10^−7 M).
